Measurements reported in patent US11046728B2, “Neuroactive steroids, compositions, and uses thereof” (Sage Therapeutics, Inc., priority 2013, dated 2021).

Assays:
[1] = target: TBPS binding, rat brain cortical membranes in the presence of 5 μM GABA; assay: 35S-TBPS displacement (steroid inhibition of TBPS binding); settings: read-out: 35S-TBPS Radioligand Displacement (IC50)
Procedure: TBPS binding assays using rat brain cortical membranes in the presence of 5 μM GABA has been described (Gee et al, J. Pharmacol. Exp. Then 1987, 241, 346-353; Hawkinson et al, Mol. Pharmacol. 1994, 46, 977-985). Briefly, cortices are rapidly removed following decapitation of carbon dioxide-anesthetized Sprague-Dawley rats (200-250 g). The cortices are homogenized in 10 volumes of ice-cold 0.32 M sucrose using a glass/teflon homogenizer and centrifuged at 1500×g for 10 min at 4° C. The resultant supernatants are centrifuged at 10,000×g for 20 min at 4° C. to obtain the P2 pellets. The P2 pellets are resuspended in 200 mM NaCl/50 mM Na—K phosphate pH 7.4 buffer and centrifuged at 10,000×g for 10 min at 4° C. This washing procedure is repeated twice and the pellets are resuspended in 10 volumes of buffer. Aliquots (100 μL) of the membrane suspensions are incubated with 3 nM [^35S]-TBPS and 5 μL, aliquots of test drug dissolved in dimethyl sulfoxide (DMSO) (final 0.5%) in the presence of 5 μM GABA. The incubation is brought to a final volume of 1.0 mL with buffer. Nonspecific binding is determined in the presence of 2 μM unlabeled TBPS and ranged from 15 to 25%. Following a 90 min incubation at room temp, the assays are terminated by filtration through glass fiber filters (Schleicher and Schuell No. 32) using a cell harvester (Braudel) and rinsed three times with ice-cold buffer. Filter bound radioactivity is measured by liquid scintillation spectrometry. Non-linear curve fitting of the overall data for each drug averaged for each concentration is done using Prism (GraphPad). […] The concentration of test compound producing 50% inhibition (IC50) of specific binding and the maximal extent of inhibition (Imax) are determined for the individual experiments with the same model used for the overall data and then the means±SEMs of the individual experiments are calculated.
Various compounds are or can be screened to determine their potential as modulators of ^35S-TBPS binding in vitro. These assays are or can be performed in accordance with the above discussed procedures.

[2] = target: T1, GABA receptor α1β2γ2 (Homo sapiens, UniProt P14867+P47870); assay: Patch clamp electrophysiology, Qpatch in Ltk cells; format: cell-based; settings: 10 μM test article, GABA EC20 = 2 μM, read-out: GABA (α1β2γ2) Qpatch in Ltk, % efficacy at 10 μM
T1 construct: expressed in transfected cells; host or cells: LTK cells, stably transfected

[3] = tested on: male Sprague Dawley rats; assay: Loss of righting reflex in rats; format: in vivo, rat; settings: intravenous bolus 5 mg/kg
Procedure: The plasma pharmacokinetics and a qualitative assessment of sedation were obtained in male Sprague Dawley rats according to the following procedure. Rats were dosed by intravenous bolus dose (60 seconds) via the foot dorsal vein at 5 mg/kg in an appropriate vehicle. In order to assess sedation, rats were gently restrained by hand to a lateral position for dose administration. […] If the animal was unable to return to an upright position, the time was recorded as the onset of loss of righting reflex (LRR). […] Sluggish or incomplete righting twice consecutively within a 30 second interval qualifies as a loss of righting reflex. After onset of LRR, animals were assessed every 5 minutes in the same manner. Recovery of righting reflex is defined as the ability of a rat to right itself completely within 20 seconds of being placed in dorsal recumbency. The duration of LRR is defined as the time interval between LRR and the return of righting reflex.

T1 sequence (P14867 28-456): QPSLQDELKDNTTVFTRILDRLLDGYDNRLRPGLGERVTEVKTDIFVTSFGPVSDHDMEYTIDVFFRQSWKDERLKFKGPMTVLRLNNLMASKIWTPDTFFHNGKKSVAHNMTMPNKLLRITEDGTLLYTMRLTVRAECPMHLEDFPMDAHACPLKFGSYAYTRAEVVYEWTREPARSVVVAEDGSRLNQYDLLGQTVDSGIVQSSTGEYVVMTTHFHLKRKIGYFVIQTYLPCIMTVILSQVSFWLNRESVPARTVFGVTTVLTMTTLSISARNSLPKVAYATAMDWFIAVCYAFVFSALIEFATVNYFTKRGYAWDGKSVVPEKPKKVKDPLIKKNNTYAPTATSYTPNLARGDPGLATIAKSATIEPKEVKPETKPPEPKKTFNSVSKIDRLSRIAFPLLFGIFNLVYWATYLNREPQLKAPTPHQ
T1 sequence (P47870 25-512 limits assumed): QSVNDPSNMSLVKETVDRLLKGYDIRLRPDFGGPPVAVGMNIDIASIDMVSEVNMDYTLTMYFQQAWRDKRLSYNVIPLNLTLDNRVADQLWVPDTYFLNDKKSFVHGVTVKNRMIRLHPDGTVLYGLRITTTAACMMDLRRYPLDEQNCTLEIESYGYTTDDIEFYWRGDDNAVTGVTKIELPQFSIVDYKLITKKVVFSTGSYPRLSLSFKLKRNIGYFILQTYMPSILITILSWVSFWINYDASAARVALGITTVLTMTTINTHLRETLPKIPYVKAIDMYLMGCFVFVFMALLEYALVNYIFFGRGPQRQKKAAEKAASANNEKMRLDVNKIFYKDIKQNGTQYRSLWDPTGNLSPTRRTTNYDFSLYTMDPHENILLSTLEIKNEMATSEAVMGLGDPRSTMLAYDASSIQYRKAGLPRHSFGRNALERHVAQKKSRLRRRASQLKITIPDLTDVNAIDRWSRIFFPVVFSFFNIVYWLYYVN
T1 sequence (P18507 40-475 partner): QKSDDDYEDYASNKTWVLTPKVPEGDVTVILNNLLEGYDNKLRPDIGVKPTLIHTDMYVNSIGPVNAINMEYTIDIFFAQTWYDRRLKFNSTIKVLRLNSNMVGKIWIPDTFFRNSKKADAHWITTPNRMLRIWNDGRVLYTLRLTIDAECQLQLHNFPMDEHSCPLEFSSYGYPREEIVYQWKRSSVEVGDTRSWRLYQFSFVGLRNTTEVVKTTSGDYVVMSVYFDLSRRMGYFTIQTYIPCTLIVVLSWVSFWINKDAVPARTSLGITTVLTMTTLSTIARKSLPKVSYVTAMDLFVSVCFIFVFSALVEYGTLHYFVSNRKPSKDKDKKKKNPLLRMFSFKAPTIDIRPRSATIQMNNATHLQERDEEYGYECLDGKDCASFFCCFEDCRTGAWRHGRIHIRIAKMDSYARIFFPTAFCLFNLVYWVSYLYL

SMILES	IC50 [1] [µM]	Emax at 10 µM [2] [%]	Duration of LRR (min) [3]
C[C@]12C[C@H](OCCO)[C@@H](O)C[C@@H]1CC[C@@H]1[C@@H]2CC[C@]2(C)[C@@H](C#N)CC[C@@H]12 [Compound 7]	> 0.5	–	–
CCO[C@H]1C[C@@]2(C)[C@@H](CC[C@@H]3[C@@H]2[C@@H](O)C[C@]2(C)[C@@H](C#N)CC[C@@H]32)C[C@@H]1O [Compound 10]	> 0.5	> 500	A (“A” indicates the duration of LRR to be <10 min)
CCO[C@H]1C[C@@]2(C)[C@@H](CC[C@@H]3[C@@H]2[C@@H](O)C[C@]2(C)[C@H](C#N)CC[C@@H]32)C[C@@H]1O [Compound 11]	> 0.5	–	–
CO[C@H]1C[C@]2(C)[C@@H](C#N)CC[C@H]2[C@@H]2CC[C@H]3C[C@H](O)[C@@H](OC)C[C@]3(C)[C@H]21 [Compound 12]	0.1 to 0.5	> 500	A (“A” indicates the duration of LRR to be <10 min)
CO[C@H]1C[C@]2(C)[C@H](C#N)CC[C@H]2[C@@H]2CC[C@H]3C[C@H](O)[C@@H](OC)C[C@]3(C)[C@H]21 [Compound 13]	> 0.5	–	–
C[C@]12CC[C@@H](O)C[C@H]1CC[C@@H]1[C@@H]2[C@@H](O)C[C@]2(C)[C@H](C#N)CC[C@@H]12 [Compound 15]	> 0.5	–	–
COCCO[C@H]1C[C@@]2(C)[C@@H](CC[C@H]3[C@@H]4CC[C@H](C#N)[C@@]4(C)CC(=O)[C@@H]32)C[C@@H]1O [Compound 17]	> 0.5	100 to 500	–
CCCO[C@H]1C[C@@]2(C)[C@@H](CC[C@@H]3[C@@H]2CC[C@]2(C)[C@H](C#N)CC[C@@H]32)C[C@@H]1O [Compound 18]	> 0.5	–	–
CCO[C@H]1C[C@@]2(C)[C@@H](CC[C@H]3[C@@H]4CC[C@@H](C#N)[C@@]4(C)CC(=O)[C@@H]32)C[C@@H]1O [Compound 20]	> 0.5	–	–
CCCO[C@H]1C[C@@]2(C)[C@@H](CC[C@H]3[C@@H]4CC[C@H](C#N)[C@@]4(C)CC(=O)[C@@H]32)C[C@@H]1O [Compound 21]	0.01 to 0.05	> 500	C (“C” indicates the duration of LRR to be >20 minutes)
CC(C)O[C@H]1C[C@@]2(C)[C@@H](CC[C@H]3[C@@H]4CC[C@H](C#N)[C@@]4(C)CC(=O)[C@@H]32)C[C@@H]1O [Compound 22]	0.05 to 0.1	100 to 500	–
CC(C)O[C@H]1C[C@@]2(C)[C@@H](CC[C@H]3[C@@H]4CC[C@H](C#N)[C@@]4(C)CC(=O)[C@@H]32)C[C@@H]1O [Compound 23]	0.1 to 0.5	–	B (“B” indicates the duration of LRR to be 10-20 minutes)
COCCO[C@H]1C[C@@]2(C)[C@@H](CC[C@@H]3[C@@H]2[C@@H](O)C[C@]2(C)[C@@H](C#N)CC[C@@H]32)C[C@@H]1O [Compound 24]	> 0.5	–	–
CCCO[C@H]1C[C@@]2(C)[C@@H](CC[C@@H]3[C@@H]2[C@@H](O)C[C@]2(C)[C@@H](C#N)CC[C@@H]32)C[C@@H]1O [Compound 26]	0.1 to 0.5	–	B (“B” indicates the duration of LRR to be 10-20 minutes)
C[C@]12CC[C@@H](O)C[C@@H]1CC[C@@H]1[C@@H]2[C@@H](O)C[C@]2(C)[C@@H](C#N)CC[C@@H]12 [Compound 27]	> 0.5	–	–
CO[C@H]1C[C@]2(C)[C@@H](C#N)CC[C@H]2[C@@H]2CC[C@@H]3C[C@H](O)CC[C@]3(C)[C@H]21 [Compound 28]	0.1 to 0.5	> 500	A (“A” indicates the duration of LRR to be <10 min)
CC(C)CO[C@H]1C[C@]2(C)C3CC[C@]4(C)[C@@H](C#N)CC[C@H]4[C@@H]3CC[C@H]2C[C@@H]1O (stereo partly shown) [Compound 29]	< 0.01	> 500	C (“C” indicates the duration of LRR to be >20 minutes)
C[C@]12C[C@@H](O)C3[C@@H](CC[C@H]4C[C@H](O)CC[C@]34C)[C@@H]1CC[C@@H]2C#N (stereo partly shown) [Compound 30]	> 0.5	–	–

SMILES	IC50 [1] [µM]	Emax at 10 µM [2] [%]	Duration of LRR (min) [3]
C[C@@H]1C[C@@]2(C)[C@@H](CC[C@@H]3[C@@H]2CC[C@]2(C)[C@@H](C#N)CC[C@@H]32)C[C@@H]1O [Compound 33]	0.01 to 0.05	100 to 500	A (“A” indicates the duration of LRR to be <10 min)
CO[C@@H]1C[C@]2(C)[C@@H](C#N)CC[C@H]2[C@@H]2CC[C@H]3C[C@H](O)CC[C@]3(C)C21 (stereo partly shown) [Compound 34]	0.1 to 0.5	–	–
C[C@H]1C[C@@]2(C)[C@@H](CC[C@@H]3[C@@H]2CC[C@]2(C)[C@@H](C#N)CC[C@@H]32)C[C@@H]1O [Compound 40]	0.01 to 0.05	> 500	B (“B” indicates the duration of LRR to be 10-20 minutes)
CC[C@H]1C[C@@]2(C)[C@@H](CC[C@@H]3[C@@H]2CC[C@]2(C)[C@@H](C#N)CC[C@@H]32)C[C@@H]1O [Compound 41]	< 0.01	> 500	C (“C” indicates the duration of LRR to be >20 minutes)
C[C@]12C[C@H](OC3CC3)[C@@H](O)C[C@@H]1CC[C@@H]1[C@@H]2CC[C@]2(C)[C@@H](C#N)CC[C@@H]12 [Compound 42]	> 0.5	–	–
C[C@]12C[C@H](OC(F)(F)F)[C@@H](O)C[C@@H]1CC[C@@H]1[C@@H]2CC[C@]2(C)[C@@H](C#N)CC[C@@H]12 [Compound 43]	> 0.5	–	–
CO[C@@H]1C[C@@]2(C)[C@@H](CC[C@@H]3[C@@H]2CC[C@]2(C)[C@@H](C#N)CC[C@@H]32)C[C@@H]1O [Compound 44]	> 0.5	–	–
CO[C@H]1C[C@]2(C)[C@@H](C#N)CC[C@H]2[C@@H]2CC[C@H]3C[C@H](O)[C@H](C)C[C@]3(C)[C@H]21 [Compound 45]	0.05 to 0.1	> 500	C (“C” indicates the duration of LRR to be >20 minutes)
CO[C@H]1C[C@]2(C)[C@H](C#N)CC[C@H]2[C@@H]2CC[C@H]3C[C@H](O)[C@H](C)C[C@]3(C)[C@H]21 [Compound 46]	0.1 to 0.5	10 to 100	–
C[C@H]1[C@H](O)CC[C@@]2(C)[C@H]1CC[C@@H]1[C@@H]2CC[C@]2(C)[C@@H](C#N)CC[C@@H]12 [Compound 49]	0.1 to 0.5	–	–
CC[C@H]1[C@H](O)CC[C@]2(C)[C@H]3CC[C@]4(C)[C@@H](C#N)CC[C@H]4[C@@H]3CC[C@@H]12 [Compound 50]	> 0.5	–	–
CO[C@H]1C[C@]2(C)[C@@H](C#N)CC[C@H]2[C@@H]2CC[C@H]3[C@@H](C)[C@H](O)CC[C@]3(C)[C@H]21 [Compound 52]	> 0.5	–	–
C[C@H]1C[C@@]2(C)[C@@H](CC[C@H]3[C@@H]4CC[C@H](C#N)[C@@]4(C)CC(=O)[C@@H]32)C[C@@H]1O [Compound 53]	0.1 to 0.5	–	–
C[C@H]1C[C@@]2(C)[C@@H](CC[C@@H]3[C@@H]2[C@@H](O)C[C@]2(C)[C@@H](C#N)CC[C@@H]32)C[C@@H]1O [Compound 54]	0.1 to 0.5	–	–
C[C@H]1[C@H](O)CC[C@@]2(C)[C@H]1CC[C@H]1[C@@H]3CC[C@H](C#N)[C@@]3(C)CC(=O)[C@@H]12 [Compound 55]	> 0.5	–	–
C[C@H]1[C@H](O)CC[C@]2(C)[C@@H]3[C@@H](CC[C@@H]12)[C@@H]1CC[C@H](C#N)[C@@]1(C)C[C@@H]3O [Compound 56]	> 0.5	–	–
C[C@]12C[C@H](OC3CC3)[C@@H](O)C[C@@H]1CC[C@@H]1[C@@H]2CC[C@]2(C)[C@H](C#N)CC[C@@H]12 [Compound 57]	> 0.5	–	–
